Measured values as given in patent US5274121A, “N-methyl-N-[4-(1-pyrrolidinyl)-2-butynyl]amide congeners as muscarinic agents” (priority 1992, dated 1993).
Read-outs that look alike come from different tables or passages of the source.

How the values were obtained:
[1] = tested on: NG108-15 neuroblastoma x glioma cells (m3 AChR); assay: Inhibition of PGE1-stimulated cAMP levels in NG108-15 cells; assay type: cell-based; details: for inhibition at 100 µM: NG108-15, NG108-15 cells, read-out: cAMP Inhib; for inhibition at 100 µM / cAMP Inhib: relative to control with no compounds added, conc. of compounds = 100 μM; for cAMP Inhib: NG108-15 cells, 100 µM
Description: (§1) Compounds of the present invention were tested for their binding affinities and activation of second messengers in selective muscarinic cholinergic receptor systems. It is believed that m1 -, m4 -, and m5 AChRs couple exclusively to PI turnover, whereas m2 - and m3 -AChRs couple only to adenylate cyclase inhibition.
(§2) Compounds of the present invention were screened for their biological activity. Assay systems using SK-N-SH human neuroblastoma cells which express only m4 -AChRs coupled to PI turnover, and NG108-15 neuroblastoma x glioma cells which express only m3 AChRs coupled to adenylate cyclase inhibition were used.
Inhibition of PGE1 -stimulated cAMP levels in NG108-15 cells
Cells were plated in 24-well plates and were grown to 90% confluence. The growth media was then replaced with a solution of 1 mM IBMX in DMEM-Hepes (0.5 mL per well) and the cells were incubated for 10 min at 37° C. Agonists were then added at a final concentration of 100 μM, along with PGE1 (final conc, 5 μM), and the cells were incubated for a further 15 min at 37° C. The reaction Was terminated by aspirating the solution and adding 0.5 mL of 0.1N HCl. In order to extract the cAMP from the cells, they were incubated in 0.1 N HCl for 30 min at room temperature. An aliquot (35 50 μL) was removed, lyophilized, and assayed for cAMP by radioimmunoassay.

[2] = tested on: SK-N-SH human neuroblastoma cells (m4 AChR); assay: Stimulation of PI turnover in SK-N-SH cells; assay type: cell-based; details: Homo sapiens, 0.5 h
Description: as §1, §2
Stimulation of PI turnover in SK-N-SH cells
Cells were plated into 24-well plates at 100,000 cells per well. After 24 hours, they were labeled overnight with 2 μCi per well of [^3 H]-myo-inositol (American Radiolabeled Chemicals, Inc., St. Louis, Mo.; 15 Ci/mM; 2 μL of stock per mL of media). The cells were then rinsed twice with 10 mM LiCl in DMEM-Hepes and the cells were incubated in this solution for 5 min at 37° C. The indicated compound was then added at a final concentration of 100 μM and the cells were incubated for another 30 min at 37° C. The reaction was stopped by aspirating the solution and adding cold methanol to the cells. After transferring the cells to a glass tube and sonicating briefly, chloroform and water were added to make a two-phase system. The upper aqueous phase was applied to 0.6 mL anion exchange columns (AG X8, Bio-Rad) and the columns were washed and total inositol phosphates were eluted with 1M ammonium formate and 0.1M formic acid.

muscarinic receptors = details: literature; cited from earlier work
[3] = target: T1, muscarinic receptors, NG108-15 cell membranes (m3 AChR) (Mus musculus, UniProt P32211); assay: Inhibition of [3H]-NMS binding to membranes from NG108-15 cells; details: for inhibition at 50 µM: read-out: binding (% inhibition of 3H-NMS binding); for inhibition at 100 µM: conc. of compounds = 100 μM
T1 construct: membranes from NG108-15 cells; endogenous in cells; host or cells: NG108-15 neuroblastoma x glioma hybrid cells (crude membrane fraction)
T1 sequence (P32211 1-479): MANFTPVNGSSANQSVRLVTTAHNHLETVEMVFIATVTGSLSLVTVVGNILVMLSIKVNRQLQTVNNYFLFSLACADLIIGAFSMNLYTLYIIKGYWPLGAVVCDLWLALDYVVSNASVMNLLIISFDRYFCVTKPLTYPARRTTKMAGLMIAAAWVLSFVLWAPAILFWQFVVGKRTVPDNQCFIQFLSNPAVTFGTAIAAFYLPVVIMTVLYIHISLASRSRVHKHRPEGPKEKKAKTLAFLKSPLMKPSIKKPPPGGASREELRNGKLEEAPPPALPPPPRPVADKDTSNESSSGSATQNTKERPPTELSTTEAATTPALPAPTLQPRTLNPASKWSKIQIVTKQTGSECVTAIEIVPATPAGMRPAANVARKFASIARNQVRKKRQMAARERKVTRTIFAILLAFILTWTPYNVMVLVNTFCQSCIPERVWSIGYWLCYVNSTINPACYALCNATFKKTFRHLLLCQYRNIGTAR
From the text: as §2
(§3) Compounds of the present invention were also screened for their relative binding affinities. Assay systems which measured the inhibition of ^3 H-N-methylscopolamine (^3 H-NMS) binding to membranes from NG108-15 cells and membranes from SK-N-SH cells were used.
(§4) Inhibition of [^3 H]-NMS binding
(§5) Cells were grown to confluence, harvested, and a crude membrane fraction was obtained. […] The total volume was 1 mL. The incubation was terminated by rapid filtration over GF/B filters using a Brandel cell harvester. The filters were washed three times with ice-cold 0.9% NaCl, equilibrated in scintillation counting fluid and counted on a Beckman LS 5801 liquid scintillation counter at 47% efficiency. Non-specific binding was determined by coincubation with 1 μM atropine, and amounted to less than 15% of total counts. It was routinely subtracted from the total counts.

[4] = tested on: NG108-15 neuroblastoma x glioma cells (m3 AChR); assay: Inhibition of PGE1-stimulated cAMP levels in NG108-15 cells; assay type: cell-based; details: read-out: cAMP Inhib (relative to OXO-M)
[5] = target: T2, muscarinic receptors, SK-N-SH cell membranes (m4 AChR) (Homo sapiens, UniProt P20309); assay: Inhibition of [3H]-NMS binding to membranes from SK-N-SH cells; details: for inhibition at 50 µM: read-out: binding (% inhibition of 3H-NMS binding); for inhibition at 100 µM: conc. of compounds = 100 μM
T2 construct: membranes from SK-N-SH cells; endogenous in cells; host or cells: SK-N-SH human neuroblastoma cells (crude membrane fraction)
From the text: as §2, §3, §4, §5

m3 AChR = details: cited from earlier work
M2 AChRs = details: M2 AChR; cited from earlier work
m4 AChR = details: cited from earlier work
M1 AChRs = details: M1 AChR; cited from earlier work
m2 AChR = details: cited from earlier work
m5 AChR = details: cited from earlier work
[6] = SK-N-SH cells, percent relative to the activity of OXO-M, conc. of compounds = 100 μM, read-out: Pi turnover
[7] = NG108-15 cells, conc. of compound = 50 μM
[8] = 0.25 h, NG108-15 cells, data relative to OXO-M, conc. of compounds = 50 μM
[9] = SK-N-SH cells, conc. of compound = 50 μM
[10] = SK-N-SH cells, data relative to OXO-M, conc. of compounds = 100 μM, read-out: Pi turnover (relative to OXO-M)

T2 sequence (P20309 whole entry): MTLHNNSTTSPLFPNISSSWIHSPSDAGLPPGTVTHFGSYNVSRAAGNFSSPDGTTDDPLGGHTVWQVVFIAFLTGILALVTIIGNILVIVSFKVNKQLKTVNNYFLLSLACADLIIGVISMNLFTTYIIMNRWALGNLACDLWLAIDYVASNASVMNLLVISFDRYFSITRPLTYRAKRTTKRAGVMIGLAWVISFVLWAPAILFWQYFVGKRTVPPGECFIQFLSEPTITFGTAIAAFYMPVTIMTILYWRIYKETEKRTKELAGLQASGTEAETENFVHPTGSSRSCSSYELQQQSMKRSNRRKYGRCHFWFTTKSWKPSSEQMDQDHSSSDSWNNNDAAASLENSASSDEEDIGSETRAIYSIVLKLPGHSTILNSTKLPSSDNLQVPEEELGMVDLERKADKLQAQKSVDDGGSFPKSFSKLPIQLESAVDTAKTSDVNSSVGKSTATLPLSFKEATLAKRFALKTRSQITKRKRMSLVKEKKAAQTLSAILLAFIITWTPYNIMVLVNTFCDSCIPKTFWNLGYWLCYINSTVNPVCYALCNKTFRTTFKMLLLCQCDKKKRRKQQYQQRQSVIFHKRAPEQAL

SMILES	inhibition at 50 µM [3, 7]	Emax at 50 µM [4, 8]	inhibition at 50 µM [5, 9]	also measured
CC(=O)N(C)CC#CCN1CCCC1 [UH 5, reference compound]	–	–	–	agonist selectivity, in words ([1]; NG108-15 (cAMP) versus SK-N-SH (PI turnover)): acted as an agonist in both systems; inhibition at 100 µM [1]: 63.2 ± 6%; cAMP Inhib [1]: 63%; Emax at 100 µM [2, 6]: 54%; muscarinic activity, in words (muscarinic receptors): maintains agonist activity and is nearly equi-potent to oxotremorine
COc1ccc(NC(=O)N(C)CC#CCN2CCCC2)cc1 [Compound 028]	24 ± 6%	20 ± 10%	61 ± 12%	–
CN(CC#CCN1CCCC1)C(=O)c1ccccc1 [Compound 032]	7 ± 4%	50 ± 20%	20 ± 5%	Emax at 100 µM [2, 10]: 4 ± 2%
CC(=O)NCCNC(=O)CCC(=O)N(C)CC#CCN1CCCC1 [Compound 023]	6 ± 4%	20 ± 10%	6 ± 5%	Emax at 100 µM [2, 10]: 6 ± 4%
CN(CC#CCN1CCCC1)CCC1OCCO1 [Compound 031]	7 ± 5%	50 ± 10%	20 ± 3%	–
CN(CC#CCN1CCCC1)C(=O)c1cccc(Cl)c1 [Compound 026]	17 ± 4%	30 ± 10%	27 ± 10%	Emax at 100 µM [2, 10]: 1 ± 1%
CN(CC#CCN1CCCC1)C(=O)CCC(=O)O [Compound 008, N-Methyl-N-[4-(1-pyrrolidinyl)-2-butynyl]-3-carboxypropanamide]	1 ± 1%	10 ± 10%	7 ± 2%	–
CN(CC#CCN1CCCC1)CC1OCCO1 [Compound 029, N-(2,5-dioxolylmethyl)-N-methyl-4-(1-pyrrolidinyl)-2-butynamine]	5 ± 5%	40 ± 10%	19 ± 5%	–
CN1CCN(CC(=O)N2c3ccccc3C(=O)Nc3cccnc32)CC1 [pirenzepine]	–	–	–	affinity for pirenzepine (m3 AChR): intermediate affinity; affinity for pirenzepine (M2 AChRs): low-affinity; affinity for pirenzepine (m4 AChR): high affinity; affinity for pirenzepine (M1 AChRs): high-affinity; affinity for pirenzepine (m2 AChR): low affinity; affinity for pirenzepine (m5 AChR): intermediate affinity
CN(CC#CCN1CCCC1)C(=O)CCC(=O)NCCN [Compound 019, N-Methyl-N-[4-(1-pyrrolidinyl)-2-butynyl]-2-[4-(2-aminoethyl)carboxamido]propanamide]	14 ± 2%	10 ± 10%	25 ± 5%	–
O=C1CCCN1CC#CCN1CCCC1 [oxotremorine]	–	–	–	muscarinic activity, in words (muscarinic receptors): potent and moderately selective central muscarinic agonist
C[N+](C)(C)CC#CCN1CCCC1=O [OXO-M, oxotremorine-M, reference compound]	74 ± 3%	100%	49 ± 12%	inhibition at 100 µM [1]: 64.1 ± 1.9%; cAMP Inhib [1]: 65±3%; inhibition at 100 µM ([3]; NG108-15 cells): 96.2 ± 2.1%; Emax at 100 µM [2, 10]: 100%; Emax at 100 µM [2, 6]: 100%; inhibition at 100 µM ([5]; SK-N-SH cells): 52.1 ± 1.2%
CC(=O)N(C)C(C)C#CCN1CCCC1 (stereo not drawn) [BM 5, reference compound]	91 ± 1%	–	95 ± 1%	inhibition at 100 µM ([3]; NG108-15 cells): 97 ± 2%; inhibition at 100 µM ([5]; SK-N-SH cells): 99 ± 1%; muscarinic activity, in words (muscarinic receptors): potent muscarinic agent with presynaptic antagonist and postsynaptic agonist activity
CN(CC#CCN1CCCC1)C(=O)Oc1ccc(Cl)cc1 [Compound 027]	–	–	–	inhibition at 50 µM [3]: 27 ± 4%; Emax at 50 µM ([4]; NG108-15, 0.25 h): 40 ± 10%; Emax at 100 µM ([2]; SK-N-SH, read-out: Pi turnover (relative to OXO-M)): 1 ± 1%; inhibition at 50 µM [5]: 62 ± 1%
COC(=O)CCC(=O)N(C)CC#CCN1CCCC1 [Compound 009, N-Methyl-N-[4-(1-pyrrolidinyl)-2-butynyl]-3-methoxycarbonylpropanamide]	5 ± 3%	10 ± 10%	8 ± 1%	–
